Experimental data published in the NIST ThermoML archive (doi:10.1021/je700260f).
± gives the expanded uncertainty stated by the source.

Settings: Liquid, Vibrating tube method

FC(C(F)(F)F)C(F)(F)F [1,1,1,2,3,3,3-heptafluoropropane]
Settings | mass density [kg/m3]
313.15 K, 33848 kPa | 1503.2 ± 1.7
313.15 K, 33888 kPa | 1503.3 ± 1.7
313.15 K, 33928 kPa | 1503.5 ± 1.7
313.15 K, 33981 kPa | 1503.8 ± 1.7
313.15 K, 34027 kPa | 1503.8 ± 1.7
313.15 K, 34060 kPa | 1503.9 ± 1.7
313.15 K, 34100 kPa | 1504 ± 1.7
313.15 K, 34136 kPa | 1504.1 ± 1.7
313.15 K, 34171 kPa | 1504.4 ± 1.7
313.15 K, 34201 kPa | 1504.5 ± 1.7
313.15 K, 34232 kPa | 1504.6 ± 1.7
313.15 K, 34269 kPa | 1504.6 ± 1.7
313.15 K, 34305 kPa | 1504.8 ± 1.7
313.15 K, 34336 kPa | 1504.7 ± 1.7
313.15 K, 34374 kPa | 1505 ± 1.7
313.15 K, 34408 kPa | 1505.1 ± 1.7
313.15 K, 34430 kPa | 1505.2 ± 1.7
313.15 K, 34451 kPa | 1505.2 ± 1.7
313.15 K, 34461 kPa | 1505.2 ± 1.7
313.15 K, 34473 kPa | 1505.2 ± 1.7
313.15 K, 34482 kPa | 1505.4 ± 1.7
313.15 K, 34489 kPa | 1505.4 ± 1.7
313.16 K, 1420 kPa | 1328.8 ± 1.5
313.16 K, 1448 kPa | 1329.3 ± 1.5
313.16 K, 9648 kPa | 1395.4 ± 1.5
313.16 K, 9676 kPa | 1395.6 ± 1.5
313.16 K, 9701 kPa | 1395.7 ± 1.5
313.16 K, 9733 kPa | 1395.9 ± 1.5
313.16 K, 9768 kPa | 1396.1 ± 1.5
313.16 K, 9796 kPa | 1396.4 ± 1.5
313.16 K, 10034 kPa | 1397.9 ± 1.5
313.16 K, 11599 kPa | 1407.5 ± 1.5
313.16 K, 11650 kPa | 1407.8 ± 1.5
313.16 K, 16202 kPa | 1432.4 ± 1.6
313.16 K, 16267 kPa | 1432.9 ± 1.6
313.16 K, 16535 kPa | 1434.1 ± 1.6
313.16 K, 16676 kPa | 1434.8 ± 1.6
313.16 K, 16775 kPa | 1435.3 ± 1.6
313.16 K, 21124 kPa | 1455.4 ± 1.6
313.16 K, 21173 kPa | 1455.5 ± 1.6
313.16 K, 23260 kPa | 1464.4 ± 1.6
313.16 K, 23309 kPa | 1464.6 ± 1.6
313.16 K, 23346 kPa | 1464.7 ± 1.6
313.16 K, 25084 kPa | 1471.9 ± 1.6
313.16 K, 25125 kPa | 1471.9 ± 1.6
313.16 K, 25173 kPa | 1472.1 ± 1.6
323.13 K, 960 kPa | 1272.4 ± 1.5
323.13 K, 990 kPa | 1272.7 ± 1.5
323.13 K, 1310 kPa | 1277.3 ± 1.5
323.13 K, 1540 kPa | 1280.5 ± 1.5
323.13 K, 1600 kPa | 1281.2 ± 1.5
323.13 K, 1800 kPa | 1283.9 ± 1.5
323.13 K, 1820 kPa | 1284.2 ± 1.5
323.13 K, 1840 kPa | 1284.5 ± 1.5
323.13 K, 2040 kPa | 1287.1 ± 1.5
323.13 K, 2060 kPa | 1287.3 ± 1.5
323.13 K, 2080 kPa | 1287.6 ± 1.5
323.13 K, 2100 kPa | 1287.9 ± 1.5
323.13 K, 2120 kPa | 1288.2 ± 1.5
323.13 K, 2140 kPa | 1288.3 ± 1.5
323.13 K, 2160 kPa | 1288.7 ± 1.5
323.13 K, 2180 kPa | 1288.9 ± 1.5
323.13 K, 2190 kPa | 1289.2 ± 1.5
323.13 K, 2220 kPa | 1289.2 ± 1.5
323.13 K, 2230 kPa | 1289.4 ± 1.5
323.13 K, 2250 kPa | 1289.8 ± 1.5
323.13 K, 2270 kPa | 1290 ± 1.5
323.13 K, 3000 kPa | 1298.9 ± 1.5
323.13 K, 3030 kPa | 1299.3 ± 1.5
323.13 K, 3090 kPa | 1299.8 ± 1.5
323.13 K, 3110 kPa | 1300.2 ± 1.5
323.13 K, 3130 kPa | 1300.3 ± 1.5
323.13 K, 3150 kPa | 1300.6 ± 1.5
323.13 K, 3180 kPa | 1300.8 ± 1.5
323.13 K, 3200 kPa | 1301.3 ± 1.5
323.13 K, 3230 kPa | 1301.4 ± 1.5
323.13 K, 3250 kPa | 1301.7 ± 1.5
323.13 K, 3270 kPa | 1301.9 ± 1.5
323.13 K, 3290 kPa | 1302.2 ± 1.5
323.13 K, 4770 kPa | 1317.9 ± 1.5
323.13 K, 4790 kPa | 1318.1 ± 1.5
323.13 K, 4820 kPa | 1318.3 ± 1.5
323.13 K, 4850 kPa | 1318.7 ± 1.5
323.13 K, 4880 kPa | 1318.9 ± 1.5
323.13 K, 4900 kPa | 1319.2 ± 1.5
323.13 K, 4920 kPa | 1319.4 ± 1.5
323.13 K, 6440 kPa | 1333.7 ± 1.5
323.13 K, 6489 kPa | 1334.1 ± 1.5
323.13 K, 6508 kPa | 1334 ± 1.5
323.13 K, 6533 kPa | 1334.5 ± 1.5
323.13 K, 6605 kPa | 1335.1 ± 1.5
323.13 K, 6623 kPa | 1335.3 ± 1.5
323.13 K, 6650 kPa | 1335.4 ± 1.5
323.13 K, 6668 kPa | 1335.7 ± 1.5
323.13 K, 6696 kPa | 1335.8 ± 1.5
323.13 K, 6716 kPa | 1336 ± 1.5
323.13 K, 6734 kPa | 1336.3 ± 1.5
323.13 K, 6759 kPa | 1336.4 ± 1.5
323.13 K, 7026 kPa | 1338.8 ± 1.5
323.14 K, 920 kPa | 1271.8 ± 1.5
323.14 K, 940 kPa | 1272.1 ± 1.5
323.14 K, 1020 kPa | 1273.1 ± 1.5
323.14 K, 1040 kPa | 1273.4 ± 1.5
323.14 K, 1060 kPa | 1273.7 ± 1.5
323.14 K, 1070 kPa | 1274.1 ± 1.5
323.14 K, 1090 kPa | 1274.2 ± 1.5
323.14 K, 1110 kPa | 1274.5 ± 1.5
323.14 K, 1130 kPa | 1274.7 ± 1.5
323.14 K, 1140 kPa | 1275.1 ± 1.5
323.14 K, 1170 kPa | 1275.4 ± 1.5
323.14 K, 1180 kPa | 1275.5 ± 1.5
323.14 K, 1200 kPa | 1275.9 ± 1.5
323.14 K, 1220 kPa | 1276 ± 1.5
323.14 K, 1240 kPa | 1276.4 ± 1.5
323.14 K, 1260 kPa | 1276.7 ± 1.5
323.14 K, 1290 kPa | 1276.9 ± 1.5
323.14 K, 1330 kPa | 1277.6 ± 1.5
323.14 K, 1350 kPa | 1277.8 ± 1.5
323.14 K, 1370 kPa | 1278.2 ± 1.5
323.14 K, 1390 kPa | 1278.3 ± 1.5
323.14 K, 1410 kPa | 1278.7 ± 1.5
323.14 K, 1420 kPa | 1278.8 ± 1.5
323.14 K, 1450 kPa | 1279.2 ± 1.5
323.14 K, 1470 kPa | 1279.6 ± 1.5
323.14 K, 1500 kPa | 1279.9 ± 1.5
323.14 K, 1520 kPa | 1280.1 ± 1.5
323.14 K, 1550 kPa | 1280.6 ± 1.5
323.14 K, 1580 kPa | 1281.1 ± 1.5
323.14 K, 1610 kPa | 1281.4 ± 1.5
323.14 K, 1630 kPa | 1281.6 ± 1.5
323.14 K, 1640 kPa | 1282 ± 1.5
323.14 K, 1670 kPa | 1282.1 ± 1.5
323.14 K, 1690 kPa | 1282.5 ± 1.5
323.14 K, 1710 kPa | 1282.7 ± 1.5
323.14 K, 1730 kPa | 1283.1 ± 1.5
323.14 K, 1750 kPa | 1283.3 ± 1.5
323.14 K, 1780 kPa | 1283.7 ± 1.5
323.14 K, 1860 kPa | 1284.7 ± 1.5
323.14 K, 1880 kPa | 1285 ± 1.5
323.14 K, 1900 kPa | 1285.3 ± 1.5
323.14 K, 1920 kPa | 1285.4 ± 1.5
323.14 K, 1940 kPa | 1285.8 ± 1.5
323.14 K, 1960 kPa | 1285.9 ± 1.5
323.14 K, 1980 kPa | 1286.3 ± 1.5
323.14 K, 2000 kPa | 1286.6 ± 1.5
323.14 K, 2020 kPa | 1286.8 ± 1.5
323.14 K, 2290 kPa | 1290.2 ± 1.5
323.14 K, 2310 kPa | 1290.6 ± 1.5
323.14 K, 2330 kPa | 1290.7 ± 1.5
323.14 K, 2350 kPa | 1291 ± 1.5
323.14 K, 2380 kPa | 1291.3 ± 1.5
323.14 K, 2390 kPa | 1291.5 ± 1.5
323.14 K, 2410 kPa | 1291.7 ± 1.5
323.14 K, 2430 kPa | 1291.9 ± 1.5
323.14 K, 2450 kPa | 1292.3 ± 1.5
323.14 K, 2480 kPa | 1292.4 ± 1.5
323.14 K, 2500 kPa | 1292.9 ± 1.5
323.14 K, 2530 kPa | 1293.2 ± 1.5
323.14 K, 2560 kPa | 1293.6 ± 1.5
323.14 K, 2570 kPa | 1293.8 ± 1.5
323.14 K, 2600 kPa | 1294 ± 1.5
323.14 K, 2610 kPa | 1294.3 ± 1.5
323.14 K, 2630 kPa | 1294.4 ± 1.5
323.14 K, 2650 kPa | 1294.8 ± 1.5
323.14 K, 2670 kPa | 1295 ± 1.5
323.14 K, 2830 kPa | 1296.9 ± 1.5
323.14 K, 2890 kPa | 1297.6 ± 1.5
323.14 K, 2920 kPa | 1297.7 ± 1.5
323.14 K, 2940 kPa | 1298.3 ± 1.5
323.14 K, 2960 kPa | 1298.4 ± 1.5
323.14 K, 2980 kPa | 1298.6 ± 1.5
323.14 K, 3060 kPa | 1299.4 ± 1.5
323.14 K, 3310 kPa | 1302.4 ± 1.5
323.14 K, 3340 kPa | 1302.7 ± 1.5
323.14 K, 3360 kPa | 1303 ± 1.5
323.14 K, 3380 kPa | 1303.3 ± 1.5
323.14 K, 3410 kPa | 1303.5 ± 1.5
323.14 K, 3440 kPa | 1303.9 ± 1.5
323.14 K, 3470 kPa | 1304.1 ± 1.5
323.14 K, 3480 kPa | 1304.3 ± 1.5
323.14 K, 3510 kPa | 1304.5 ± 1.5
323.14 K, 3530 kPa | 1304.8 ± 1.5
323.14 K, 3550 kPa | 1305 ± 1.5
323.14 K, 3570 kPa | 1305.4 ± 1.5
323.14 K, 3600 kPa | 1305.5 ± 1.5
323.14 K, 3640 kPa | 1306.1 ± 1.5
323.14 K, 3660 kPa | 1306.3 ± 1.5
323.14 K, 3680 kPa | 1306.5 ± 1.5
323.14 K, 3700 kPa | 1306.7 ± 1.5
323.14 K, 3720 kPa | 1307 ± 1.5
323.14 K, 3750 kPa | 1307.2 ± 1.5
323.14 K, 3770 kPa | 1307.5 ± 1.5
323.14 K, 3790 kPa | 1307.7 ± 1.5
323.14 K, 3810 kPa | 1308 ± 1.5
323.14 K, 3840 kPa | 1308.2 ± 1.5
323.14 K, 3860 kPa | 1308.5 ± 1.5
323.14 K, 3880 kPa | 1308.7 ± 1.5
323.14 K, 3900 kPa | 1309 ± 1.5
323.14 K, 3920 kPa | 1309.1 ± 1.5
323.14 K, 3950 kPa | 1309.4 ± 1.5
323.14 K, 3970 kPa | 1309.8 ± 1.5
323.14 K, 4000 kPa | 1309.9 ± 1.5
323.14 K, 4020 kPa | 1310.2 ± 1.5
323.14 K, 4040 kPa | 1310.3 ± 1.5
323.14 K, 4070 kPa | 1310.7 ± 1.5
